Source: patent US20260000655A1, “PHARMACEUTICAL COMPOSITION FOR USE IN PREVENTION OR TREATMENT OF LIFESTYLE-RELATED DISEASE” (priority 2022, published 2026)

What was measured:
[1] = test system: high-fat diet-induced obesity model mice; assay: H&E staining of mouse tissue; type: in vivo; conditions: metformin 300 mg/kg orally 28 days; compared to control
Description: High-fat diet-induced obesity model mice were prepared in the same manner as in Example 7. Note that the high-fat diet-induced obesity model mice develop liver damage and are thus used as a liver disease model. Then, HPH-15 (10 mg/kg or 100 mg/kg, […]) dissolved in olive oil or metformin (300 mg/kg, […]) was orally administered once a day for 28 days. Olive oil alone was administered as a control. After administration of each for 28 days, the liver, epididymis, and muscle of the high-fat diet-induced obesity model mice were stained with H&E and observed using a microscope. The results of H&E staining of the liver are shown in FIG. 12A, the results of H&E staining of the epididymis are shown in FIG. 12B, and the results of H&E staining of the muscle are shown in FIG. 12C.

[2] = test system: high-fat diet-induced obesity model mice; assay: Sirius Red staining and collagen amount in mouse tissue; type: in vivo; conditions: HPH-15 10 mg/kg or 100 mg/kg, metformin 300 mg/kg, orally 28 days, Western blotting
Description: High-fat diet-induced obesity model mice were prepared in the same manner as in Example 7. Then, HPH-15 (10 mg/kg or 100 mg/kg, […]) dissolved in olive oil or metformin (300 mg/kg, […]) was orally administered once a day for 28 days. Olive oil alone was administered as a control. After 28 days of administration of each, the liver and the epididymal fat of the high-fat diet-induced obesity model mice were stained with Sirius Red and observed using a microscope.
Further, high-fat diet-induced obesity model mice were prepared in the same manner as in Example 7. Then, HPH-15 (10 mg/kg or 100 mg/kg, […]) dissolved in olive oil or metformin (300 mg/kg, […]) was orally administered once a day for 28 days. Olive oil alone was administered as a control. After 28 days of administration of each, equal amounts (50 mg) of tissue pieces were collected from the liver and epididymal adipose tissues of the high-fat diet-induced obesity model mice, transferred to 1.5 mL Eppendorf tubes, and washed twice with PBS. After washing, the tissue pieces were transferred to BIOMASHER II, […] of RIPA buffer was added, and the tissue pieces were homogenized on ice. After homogenization, the tissue pieces were centrifuged (10,000 rpm, 4° C., 5 min) and the supernatant was obtained as a protein solution. The concentration of the proteins thus obtained was corrected based on the protein concentration measured by the BCA method using bicinchoninic acid (BCA), thereby preparing samples for Western blotting. Western blotting was quantified using ImageJ to calculate the amount of collagen.

## CN(C)C(=N)N=C(N)N [metformin, reference compound]
[1]
  fat area (H&E): only slightly reduced the fat area
[2]
  amount of collagen in the epididymal adipose tissue: no collagen-reducing effect was confirmed
  amount of collagen in the liver tissue: no collagen-reducing effect was confirmed
